Experimental data: ChEMBL document CHEMBL3885881, “DrugMatrix”

Species on record: Rattus norvegicus
Test: DrugMatrix - Regimen: Daily Repeat
Assay type: toxicity, organism-based, Sprague-Dawley
Design: regimen Daily Repeat, gender Male, age 6-8 weeks
Conditions: in vivo, po, route oral GAVAGE, […]; for POTASSIUM / SODIUM / TOTAL BILIRUBIN / TOTAL PROTEIN / URIC ACID / ALANINE AMINOTRANSFERASE / ALBUMIN / ALKALINE PHOSPHATASE / ASPARTATE AMINOTRANSFERASE / BLOOD UREA NITROGEN / CARBON DIOXIDE / CHLORIDE / CHOLESTEROL / CREATINE PHOSPHOKINASE / CREATININE / GLUCOSE / LIPASE / PHOSPHORUS / LACTATE DEHYDROGENASE: tissue Plasma; for ABSOLUTE BASOPHIL / ABSOLUTE EOSINOPHIL / ABSOLUTE LYMPHOCYTE / ABSOLUTE MONOCYTE / BASOPHIL / EOSINOPHIL / ERYTHROCYTE COUNT / HEMATOCRIT / HEMOGLOBIN / LEUKOCYTE COUNT / LYMPHOCYTE / MEAN CORPUSCULAR HEMOGLOBIN / MEAN CORPUSCULAR HEMOGLOBIN CONCENTRATION / MEAN CORPUSCULAR VOLUME / MONOCYTE / NEUTROPHIL / PLATELET COUNT: tissue Blood
[1] = 0 mg/kg, 72 h, dose level Control, time 3 day
[2] = 0 mg/kg, 120 h, dose level Control, time 5 day
[3] = 0 mg/kg, dose level Control, time 14 day
[4] = 15 mg/kg, 72 h, dose level High, time 3 day
[5] = 15 mg/kg, 120 h, dose level High, time 5 day
[6] = 15 mg/kg, dose level High, time 14 day

CC(CCc1ccc(O)cc1)NCCc1ccc(O)c(O)c1 (configuration not stated) [DOBUTAMINE]
POTASSIUM [1]: 6.13 MEQ/L
SODIUM [1]: 145 MEQ/L
TOTAL BILIRUBIN [1]: 0.43 mg/dL
TOTAL PROTEIN [1]: 6.7 G/DL
URIC ACID [1]: 0.83 mg/dL
ABSOLUTE BASOPHIL [2]: 33.3 cells/µL
ABSOLUTE EOSINOPHIL [2]: 56.7 cells/µL
ABSOLUTE LYMPHOCYTE [2]: 9220 cells/µL
ABSOLUTE MONOCYTE [2]: 230 cells/µL
BASOPHIL [2]: 0.3%
EOSINOPHIL [2]: 0.5%
ERYTHROCYTE COUNT [2]: 6.62 x10E6/uL
HEMATOCRIT [2]: 46.43%
HEMOGLOBIN [2]: 14.3 G/DL
LEUKOCYTE COUNT [2]: 10.96 x10E3/uL
LYMPHOCYTE [2]: 83.83%
MEAN CORPUSCULAR HEMOGLOBIN [2]: 21.57 pg
MEAN CORPUSCULAR HEMOGLOBIN CONCENTRATION [2]: 30.77 G/DL
MEAN CORPUSCULAR VOLUME [2]: 70.13 fL
MONOCYTE [2]: 2.1%
NEUTROPHIL [2]: 12.53%
PLATELET COUNT [2]: 1056.67 x10E3/uL
ALANINE AMINOTRANSFERASE [2]: 41.33 u/L
ALBUMIN [2]: 4.07 G/DL
ALKALINE PHOSPHATASE [2]: 603.33 u/L
ASPARTATE AMINOTRANSFERASE [2]: 80 u/L
BLOOD UREA NITROGEN [2]: 14.67 mg/dL
CARBON DIOXIDE [2]: 43 mmol/L
CHLORIDE [2]: 104 MEQ/L
CHOLESTEROL [2]: 88.33 mg/dL
CREATINE PHOSPHOKINASE [2]: 391.67 u/L
CREATININE [2]: 0.47 mg/dL
GLUCOSE [2]: 156 mg/dL
LIPASE [2]: 10.67 u/L
PHOSPHORUS [2]: 9.03 mg/dL
POTASSIUM [2]: 6.1 MEQ/L
SODIUM [2]: 145.67 MEQ/L
TOTAL BILIRUBIN [2]: 0.37 mg/dL
TOTAL PROTEIN [2]: 6.53 G/DL
URIC ACID [2]: 0.5 mg/dL
ABSOLUTE BASOPHIL [3]: 73.3 cells/µL
ABSOLUTE EOSINOPHIL [3]: 60 cells/µL
ABSOLUTE LYMPHOCYTE [3]: 12200 cells/µL
ABSOLUTE MONOCYTE [3]: 250 cells/µL
BASOPHIL [3]: 0.5%
EOSINOPHIL [3]: 0.37%
ERYTHROCYTE COUNT [3]: 7.33 x10E6/uL
HEMATOCRIT [3]: 44.3%
HEMOGLOBIN [3]: 14.77 G/DL
LEUKOCYTE COUNT [3]: 14.86 x10E3/uL
LYMPHOCYTE [3]: 81.87%
MEAN CORPUSCULAR HEMOGLOBIN [3]: 20.2 pg
MEAN CORPUSCULAR HEMOGLOBIN CONCENTRATION [3]: 33.33 G/DL
MEAN CORPUSCULAR VOLUME [3]: 60.57 fL
MONOCYTE [3]: 1.63%
NEUTROPHIL [3]: 14.93%
PLATELET COUNT [3]: 1101.67 x10E3/uL
ALANINE AMINOTRANSFERASE [3]: 31.67 u/L
ALBUMIN [3]: 3.83 G/DL
ALKALINE PHOSPHATASE [3]: 430.67 u/L
ASPARTATE AMINOTRANSFERASE [3]: 87 u/L
BLOOD UREA NITROGEN [3]: 14.33 mg/dL
CARBON DIOXIDE [3]: 39 mmol/L
CHLORIDE [3]: 104 MEQ/L
CHOLESTEROL [3]: 66 mg/dL
CREATINE PHOSPHOKINASE [3]: 441.67 u/L
CREATININE [3]: 0.7 mg/dL
GLUCOSE [3]: 125.67 mg/dL
LACTATE DEHYDROGENASE [3]: 397.67 u/L
LIPASE [3]: 12.33 u/L
PHOSPHORUS [3]: 9.87 mg/dL
POTASSIUM [3]: 5.93 MEQ/L
SODIUM [3]: 145 MEQ/L
TOTAL BILIRUBIN [3]: 0.37 mg/dL
TOTAL PROTEIN [3]: 6.27 G/DL
URIC ACID [3]: 0.67 mg/dL
ABSOLUTE BASOPHIL [4]: 23.3 cells/µL
ABSOLUTE EOSINOPHIL [4]: 50 cells/µL
ABSOLUTE LYMPHOCYTE [4]: 6060 cells/µL
ABSOLUTE MONOCYTE [4]: 170 cells/µL
BASOPHIL [4]: 0.3%
EOSINOPHIL [4]: 0.67%
ERYTHROCYTE COUNT [4]: 6.67 x10E6/uL
HEMATOCRIT [4]: 46.03%
HEMOGLOBIN [4]: 14.2 G/DL
LEUKOCYTE COUNT [4]: 8.35 x10E3/uL
LYMPHOCYTE [4]: 72.8%
MEAN CORPUSCULAR HEMOGLOBIN [4]: 21.33 pg
MEAN CORPUSCULAR HEMOGLOBIN CONCENTRATION [4]: 30.87 G/DL
MEAN CORPUSCULAR VOLUME [4]: 69.1 fL
MONOCYTE [4]: 2.07%
NEUTROPHIL [4]: 23.9%
PLATELET COUNT [4]: 1110.33 x10E3/uL
ALANINE AMINOTRANSFERASE [4]: 48.33 u/L
ALBUMIN [4]: 4.07 G/DL
ALKALINE PHOSPHATASE [4]: 498.67 u/L
ASPARTATE AMINOTRANSFERASE [4]: 85.67 u/L
BLOOD UREA NITROGEN [4]: 18.67 mg/dL
CARBON DIOXIDE [4]: 41.67 mmol/L
CHLORIDE [4]: 105 MEQ/L
CHOLESTEROL [4]: 71.67 mg/dL
CREATINE PHOSPHOKINASE [4]: 568.67 u/L
CREATININE [4]: 0.6 mg/dL
GLUCOSE [4]: 196 mg/dL
LIPASE [4]: 199.67 u/L
PHOSPHORUS [4]: 9.2 mg/dL
POTASSIUM [4]: 5.77 MEQ/L
SODIUM [4]: 147.67 MEQ/L
TOTAL BILIRUBIN [4]: 0.43 mg/dL
TOTAL PROTEIN [4]: 6.67 G/DL
URIC ACID [4]: 0.6 mg/dL
ABSOLUTE BASOPHIL [5]: 26.7 cells/µL
ABSOLUTE EOSINOPHIL [5]: 26.7 cells/µL
ABSOLUTE LYMPHOCYTE [5]: 7530 cells/µL
ABSOLUTE MONOCYTE [5]: 170 cells/µL
BASOPHIL [5]: 0.27%
EOSINOPHIL [5]: 0.33%
ERYTHROCYTE COUNT [5]: 6.8 x10E6/uL
HEMATOCRIT [5]: 46.17%
HEMOGLOBIN [5]: 14.17 G/DL
LEUKOCYTE COUNT [5]: 9.18 x10E3/uL
LYMPHOCYTE [5]: 82.07%
MEAN CORPUSCULAR HEMOGLOBIN [5]: 20.87 pg
MEAN CORPUSCULAR HEMOGLOBIN CONCENTRATION [5]: 30.73 G/DL
MEAN CORPUSCULAR VOLUME [5]: 67.93 fL
MONOCYTE [5]: 1.87%
NEUTROPHIL [5]: 15%
PLATELET COUNT [5]: 1523.67 x10E3/uL
ALANINE AMINOTRANSFERASE [5]: 40.67 u/L
ALBUMIN [5]: 4.2 G/DL
ALKALINE PHOSPHATASE [5]: 613.33 u/L
ASPARTATE AMINOTRANSFERASE [5]: 74.67 u/L
BLOOD UREA NITROGEN [5]: 17 mg/dL
CARBON DIOXIDE [5]: 40.67 mmol/L
CHLORIDE [5]: 107.33 MEQ/L
CHOLESTEROL [5]: 84.33 mg/dL
CREATINE PHOSPHOKINASE [5]: 393 u/L
CREATININE [5]: 0.53 mg/dL
GLUCOSE [5]: 174.33 mg/dL
LIPASE [5]: 199.33 u/L
PHOSPHORUS [5]: 10.1 mg/dL
POTASSIUM [5]: 6.07 MEQ/L
SODIUM [5]: 149.33 MEQ/L
TOTAL BILIRUBIN [5]: 0.4 mg/dL
TOTAL PROTEIN [5]: 6.73 G/DL
URIC ACID [5]: 0.87 mg/dL
ABSOLUTE BASOPHIL [6]: 52 cells/µL
ABSOLUTE EOSINOPHIL [6]: 40 cells/µL
ABSOLUTE LYMPHOCYTE [6]: 9620 cells/µL
ABSOLUTE MONOCYTE [6]: 200 cells/µL
BASOPHIL [6]: 0.42%
EOSINOPHIL [6]: 0.34%
ERYTHROCYTE COUNT [6]: 7.05 x10E6/uL
HEMATOCRIT [6]: 43.9%
HEMOGLOBIN [6]: 14.6 G/DL
LEUKOCYTE COUNT [6]: 12.04 x10E3/uL
LYMPHOCYTE [6]: 79.76%
MEAN CORPUSCULAR HEMOGLOBIN [6]: 20.7 pg
MEAN CORPUSCULAR HEMOGLOBIN CONCENTRATION [6]: 33.26 G/DL
MEAN CORPUSCULAR VOLUME [6]: 62.28 fL
MONOCYTE [6]: 1.68%
NEUTROPHIL [6]: 17.28%
PLATELET COUNT [6]: 1124.2 x10E3/uL
ALANINE AMINOTRANSFERASE [6]: 35 u/L
ALBUMIN [6]: 4.04 G/DL
ALKALINE PHOSPHATASE [6]: 405.4 u/L
ASPARTATE AMINOTRANSFERASE [6]: 77.8 u/L
BLOOD UREA NITROGEN [6]: 14 mg/dL
CARBON DIOXIDE [6]: 43.2 mmol/L
CHLORIDE [6]: 103 MEQ/L
CHOLESTEROL [6]: 69.8 mg/dL
CREATINE PHOSPHOKINASE [6]: 325.8 u/L
CREATININE [6]: 0.8 mg/dL
GLUCOSE [6]: 144.4 mg/dL
LACTATE DEHYDROGENASE [6]: 182.2 u/L
LIPASE [6]: 12.2 u/L
PHOSPHORUS [6]: 10.48 mg/dL
POTASSIUM [6]: 6.04 MEQ/L
SODIUM [6]: 147 MEQ/L
TOTAL BILIRUBIN [6]: 0.36 mg/dL
TOTAL PROTEIN [6]: 6.56 G/DL
URIC ACID [6]: 0.66 mg/dL
